Measured values as given in patent US20260174780A1, “BISMUTH-THIOL COMPOSITIONS AND METHODS FOR TREATING INFLAMMATORY DISEASES” (Microbion Corporation, priority 2022, published 2026).

Key:
[1] = test system: lung tissue of M. abscessus infected mice; test: Lung histopathology in chronic M. abscessus infection study; format: in vivo, SCID/Beige mice
Method: After 28 days of treatment with BisEDT, animals were euthanized by CO2 and secondary cardiac puncture to collect whole blood for quantitation of BisEDT concentration. Lungs and spleens from the CFU mice were homogenized with 1:1 H2O:Dey-Englev neutralizing broth to deactivate BisEDT. CFUs were determined after serial dilution. Mice for histology and the lung pair split, one half in formalin the other half weighed and snap frozen in liquid N2 to determine tissue concentration of BisEDT.
Samples for histology were processed by the Veterinary Diagnostic Laboratory. Slides were stained with hematoxylin-eosin (HE stain) for general pathology as well as a slide for acid-fast stain to highlight the mycobacterial infection in lung tissue.

[2] = Particle size by Nanosizer/Zetasizer Nano-S (volumetric mean diameter); format: physicochemical; conditions: resuspended in 2% Pluronic F-68, sonicated; two measurements
Method: The dried particulate matter was characterized to assess the particle size properties. Briefly, particles were resuspended in 2% Pluronic® F-68 (BASF, Mt. Olive, NJ) and the suspension was sonicated for 10 minutes in a water bath sonicator at standard setting prior to analysis using a Nanosizer/Zetasizer Nano-S particle analyzer (model ZEN1600 (without zeta-potential measuring capacity), Malvern Instruments, Worcestershire, UK) according to the manufacturer's recommendations.

AIM2 inflammasome = test: qPCR of AIM2 in BEAS-2B cells; format: cell-based, human; conditions: 0.5-4 μg/mL, 24 hours
Method: (§1) Protocol: BEAS-2B cells were grown in tissue culture flasks and a 24-well plate was seeded with 2×10^5 cells/well and incubated at 37° C. and 5% CO2 for 48 hours. Select wells were treated with either 4 μg/mL, 2 μg/mL, 1 μg/mL, or 0.5 μg/mL BisEDT or left untreated as a control and incubated at 37° C. and 5% CO2 for 24 hours. Cell culture supernatant was collected from each well and stored at −20° C. until further ELISA analysis. On the day of the ELISA assays to determine the expression of each cytokine, cell culture supernatant was thawed, and the assays performed following the manufacturer's instructions. Cells were collected for RNA isolation using Qiagen RNeasy kit using manufacturers' instructions. Briefly, genomic DNA was degraded with DNase (Roche) and samples were incubated at 37° C. for 1 hour followed by 3 μL DNase inactivation reagent (Invitrogen) incubated at 37° C. for 2 minutes. Samples were centrifuged at maximum speed for 5 minutes to remove the inactivation reagent. RNA concentration and quality was evaluated using a Nanodrop. RNA samples were utilized to generate cDNA using cDNA synthesis kit (Bio-Rad). qPCR for AIM2 and actin (housekeeping gene) was conducted using SYBR green kit (Bio-Rad) along with standards.

BEAS-2B cells = test: Cytokine ELISA in BEAS-2B cells; format: cell-based, human; conditions: 0.5, 1, 2 or 4 μg/mL, 24 hours, compared to untreated cells
Method: as §1

[3] = Tolerability of inhaled BisEDT in the M. abscessus mouse study; format: in vivo, SCID/Beige mice; conditions: inhaled 200 and 1000 μg/kg/day, 28 days
Method: A nose-only inhalation exposure chamber from CH technologies was used for this experiment. Mice were split into four treatment groups, Vehicle (buffer containing no BisEDT), amikacin (100 μg/kg/day), BisEDT “low” (200 μg/kg/day), and BisEDT “high” (1000 μg/kg/day). Each treatment group consisted of 12 mice. Ten of these mice were used for CFU determination and two mice are used for histology/pathology/lung pharmacokinetics. Treatment was conducted 6 days a week over the course of 28 days total. To create the correct level of deposited dose of each drug tested, 10 mL of test article were made. Amikacin in HBSS at 20 mg/mL was made and stored at 4° C. until needed. BisEDT “high” at a concentration of 8 mg/mL was made once a week and stored at room temperature. BisEDT “low” was diluted from the 8 mg/mL to 1.6 mg/mL the day of treatment. Each treatment used an LC star reusable nebulizer from Pari. Animals were restrained and placed on the inhalation apparatus. The respiratory hose was connected to the inhalation apparatus and a compressor was connected to the nebulizer. The rate of air flow from the compressor to the nebulizer remained at 8.5 L/minute, which generated a nebulized fog that each mouse breathed in over 45 min.

NLRP3 = test: qPCR of NLRP3 in A549 cells; format: cell-based, human; conditions: 0.5-4 μg/mL, 24 hours, compared to untreated cells
Method: as §1, with “A549” for “BEAS-2B”, “further” for “further ELISA”, “analysis.” for “analysis. On the day of the ELISA assays to determine the expression of each cytokine, cell culture supernatant was thawed, and the assays performed following the manufacturer's instructions.”, “manufacturer's” for “manufacturers'”, “NLRP3” for “AIM2”, “standard.” for “standards.”

A549 cells = test: IL-10 expression (ELISA) in A549 cells; format: cell-based, human; conditions: 2 μg/mL and 4 μg/mL, 24 h, compared to untreated control
Method: A549 cells were differentiated with 50 ng/mL PMA for 24 hours, followed by 24 hours in media prior to infection. Cells were washed with media and treated with insoluble BisEDT or other antibiotics, and incubated for 24 h post treatment. Cell media was then removed and frozen at −80° C. Samples were briefly vortexed before conducting ELISA analysis for IL-10 expression (FIG. 1). BisEDT at a concentration of 2 μg/mL and 4 μg/mL increased the level of IL-10 expression level in A549 cells compared to untreated control.

SMILES: C1C[S][Bi]([S]CC[S][Bi]2[S]CC[S]2)[S]1 [BisEDT, 1,2-(Bis(1,3-dithia-2-bismolane)thio)ethane]
- inflammatory process caused by the test article in lung ([1]; M. abscessus infected, BisEDT treated mice): no indication of an inflammatory process caused by the BisEDT
- lung histomorphologic observation ([1]; high-dose (1000 μg/kg/day), FIG. 5D): the inflammatory response was receding and clear airways were observed
- lung histomorphologic observation ([1]; low-dose (200 μg/kg/day), FIG. 5C): decrease of inflammatory infiltrate compared to untreated control and a decrease in hemorrhage
- peak VMD [2]: about 1.3 microns
- AIM2 inflammasome expression (AIM2/Actin copy number) (AIM2 inflammasome): inhibit AIM2 inflammasome expression
- expression of IL-1β (BEAS-2B cells): Consistent reduction
- expression of IL-10 (BEAS-2B cells): consistent increase
- expression of TNF-α (BEAS-2B cells): Consistent reduction
- body weight at the end of treatment [3]: within the normal weight range
- tolerability [3]: well tolerated
- NLRP3 expression (NLRP3/Actin copy number) (NLRP3): inhibits NLRP3 expression
- IL-10 expression level (A549 cells): increased
